Molecular target: T1, γ-secretase (Homo sapiens, UniProt P49768)
T1 construct: uses a HEK293 membrane fraction as a source of γ-secretase; endogenous in cells; host or cells: HEK293 (microsomal membrane fraction, solubilised in 0.25% CHAPSO)
Assay: in vitro assay of γ-secretase activity (HEK293 membrane fraction, recombinant APP substrate, Abeta ELISA)
Type: biochemical
Details: γ-secretase inhibition; HEK293 membrane fraction solubilized in 0.25% CHAPSO, recombinant human APP C-terminal 100 amino acids substrate, Abeta detected by ELISA
Excerpt: Description of 1γ-Secretase Assay The activity of test compounds can be evaluated in assays which measure the proteolytic cleavage of suitable substrates by γ-secretase activity. These can be cellular assays where e.g., a substrate of the γ-secretase is fused in its cytoplasmic domain to a transcription factor. Cells are transfected with this fusion gene and a reporter gene, e.g., firefly luciferase, which expression is enhanced by the transcription factor. Cleavage of the fused substrate by γ-secretase will lead to expression of the reporter gene which can be monitored in appropriate assays. The γ-secretase activity can also be determined in cell-free in vitro assays where e.g., a cell lysate containing the γ-secretase complex is incubated with a suitable APP-derived substrate which is cleaved to the Abeta peptides. The amount of produced peptides can be determined with specific ELISA assays. Cell lines of neuronal origin secrete Abeta peptides which can be measured with the specific ELISA assay. Treatment with compounds which inhibit γ-secretase leads to a reduction of secreted Abeta thus providing a measure of inhibition. The in vitro assay of γ-secretase activity uses a HEK293 membrane fraction as a source of γ-secretase and a recombinant APP substrate. Latter consist of the C-terminal 100 amino acids of human APP fused to a 6× Histidin tail for purification which is expressed in E. coli in a regulatable expression vector, e.g. pEt15. This recombinant protein corresponds to the truncated APP fragment which results after […] of the extracellular domain and which constitutes the γ-secretase substrate. The assay principle is described in Li Y M et al, PNAS 97(11), 6138-6143 (2000). Hek293 cells are mechanically disrupted and the microsomal fraction is isolated by differential centrifugation. The membranes are solubilized in detergent (0.25% CHAPSO) and incubated with the APP substrate. The Abeta peptides which are produced by γ-secretase cleavage of the substrate are detected by specific ELISA assays as described (Brockhaus M et al, Neuroreport 9(7), 1481-1486 (1998).

| SMILES | IC50 |
| --- | --- |
| CCOC(C(=O)NCC(F)(F)C(F)(F)F)C(=O)N[C@@H]1C(=O)N(CCO)c2ccccc2-c2ccccc21 (single isomer, unassigned; epimer a) [Example 18, (S or R)-2-Ethoxy-N—[(S)-5-(2-hydroxy-ethyl)-6-oxo-6,7-dihydro-5H-dibenzo[b,d]azepin-7-yl]-N′-(2,2,3,3,3-pentafluoro-propyl)-malonamide, epimer A] | 7 nM |
| CC(O)(C(=O)NCC(F)(F)C(F)(F)F)C(=O)N[C@@H]1C(=O)N(CCO)c2ccccc2-c2ccccc21 (single isomer, unassigned; epimer a) [Example 20] | 3 nM |
| COCCN1C(=O)[C@@H](NC(=O)C(C)(O)C(=O)NCC(F)(F)C(F)(F)F)c2ccccc2-c2ccccc21 (single isomer, unassigned; epimer a) [Example 45] | 9 nM |
| CC(O)(C(=O)NCCC(F)(F)F)C(=O)N[C@@H]1C(=O)N(CCO)c2ccccc2-c2ccccc21 (single isomer, unassigned; epimer a) [Example 65, (R or S)-2-Hydroxy-N—[(S)-5-(2-hydroxy-ethyl)-6-oxo-6,7-dihydro-5H-dibenzo[b,d]azepin-7-yl]-2-methyl-N′-(3,3,3-trifluoro-propyl)-malonamide, epimer A] | 39 nM |
| CCOC(C(=O)NCC(F)(F)C(F)(F)F)C(=O)N[C@@H]1C(=O)N(CCO)c2ccccc2-c2ccccc21 (single isomer, unassigned; epimer b) [Example 19, [R or S]2-Ethoxy-N—[(S)-5-(2-hydroxy-ethyl)-6-oxo-6,7-dihydro-5H-dibenzo[b,d]azepin-7-yl]-N′-(2,2,3,3,3-pentafluoro-propyl)-malonamide, epimer B] | 4 nM |
| CC(O)(C(=O)NCC(F)(F)C(F)(F)F)C(=O)N[C@@H]1C(=O)N(CCO)c2ccccc2-c2ccccc21 (single isomer, unassigned; epimer b) [Example 21] | 1 nM |
| COCCN1C(=O)[C@@H](NC(=O)C(C)(O)C(=O)NCC(F)(F)C(F)(F)F)c2ccccc2-c2ccccc21 (single isomer, unassigned; epimer b) [Example 46] | 2 nM |
| CC(O)(C(=O)NCCC(F)(F)C(F)(F)F)C(=O)N[C@@H]1C(=O)N(CCO)c2ccccc2-c2ccccc21 (single isomer, unassigned; epimer b) [Example 62, (S or R)-2-Hydroxy-N—[(S)-5-(2-hydroxy-ethyl)-6-oxo-6,7-dihydro-5H-dibenzo[b,d]azepin-7-yl]-2-methyl-N′-(3,3,4,4,4-pentafluoro-butyl)-malonamide, epimer B] | 1 nM |
| CC(O)(C(=O)NCCC(F)(F)F)C(=O)N[C@@H]1C(=O)N(CCO)c2ccccc2-c2ccccc21 (single isomer, unassigned; epimer b) [Example 66, (S or R)-2-Hydroxy-N—[(S)-5-(2-hydroxy-ethyl)-6-oxo-6,7-dihydro-5H-dibenzo[b,d]azepin-7-yl]-2-methyl-N′-(3,3,3-trifluoro-propyl)-malonamide, epimer B] | 1 nM |
| COC(=O)CN1C(=O)[C@@H](NC(=O)C(C)C(=O)NCC(F)(F)C(F)(F)F)c2ccccc2-c2ccccc21 (stereo partly drawn) [Example 1, {(S)-6-Oxo-7-[2-(2,2,3,3,3-pentafluoro-propylcarbamoyl)-propionylamino]-6,7-dihydro-dibenzo[b,d]azepin-5-yl}-acetic acid methyl ester] | 10 nM |
| CC(C(=O)NCC(F)(F)C(F)(F)F)C(=O)N[C@@H]1C(=O)N(CCOCc2ccccc2)c2ccccc2-c2ccccc21 (stereo partly drawn) [Example 2, N—[(S)-5-(2-Benzyloxy-ethyl)-6-oxo-6,7-dihydro-5H-dibenzo[b,d]azepin-7-yl]-2-methyl-N′-(2,2,3,3,3-pentafluoro-propyl)-malonamide] | 6 nM |
| CC(C(=O)NCC(F)(F)C(F)(F)F)C(=O)N[C@@H]1C(=O)N(CCO)c2ccccc2-c2ccccc21 (stereo partly drawn) [Example 3, N—[(S)-5-(2-Hydroxy-ethyl)-6-oxo-6,7-dihydro-5H-dibenzo[b,d]azepin-7-yl]-2-methyl-N ′-(2,2,3,3,3-pentafluoro-propyl)-malonamide] | 1 nM |
| CC(C)(C(=O)NCC(F)(F)C(F)(F)F)C(=O)N[C@@H]1C(=O)N(CCOCc2ccccc2)c2ccccc2-c2ccccc21 [Example 4, N—[(S)-5-(2-Benzyloxy-ethyl)-6-oxo-6,7-dihydro-5H-dibenzo[b,d]azepin-7-yl]-2,2-dimethyl-N′-(2,2,3,3,3-pentafluoro-propyl)-malonamide] | 9 nM |
| C[C@H](OC(=O)NCC(F)(F)C(F)(F)F)C(=O)N[C@@H]1C(=O)N(CCOCc2ccccc2)c2ccccc2-c2ccccc21 [Example 5, (2,2,3,3,3-Pentafluoro-propyl)-carbamic acid (S)-1-[(S)-5-(2-benzyloxy-ethyl)-6-oxo-6,7-dihydro-5H-dibenzo[b,d]azepin-7-ylcarbamoyl]-ethyl ester] | 11 nM |
| CC(C)(C(=O)NCC(F)(F)C(F)(F)F)C(=O)N[C@@H]1C(=O)N(CCO)c2ccccc2-c2ccccc21 [Example 6, N—[(S)-5-(2-Hydroxy-ethyl)-6-oxo-6,7-dihydro-5H-dibenzo[b,d]azepin-7-yl]-2,2-dimethyl-N′-(2,2,3,3,3-pentafluoro-propyl)-malonamide] | 2 nM |
| O=C(CC(=O)N[C@@H]1C(=O)N(CCOCc2ccccc2)c2ccccc2-c2ccccc21)NCC(F)(F)C(F)(F)F [Example 7, N—[(S)-5-(2-Benzyloxy-ethyl)-6-oxo-6,7-dihydro-5H-dibenzo[b,d]azepin-7-yl]-N′-(2,2,3,3,3-pentafluoro-propyl)-malonamide] | 22 nM |
| C[C@H](OC(=O)NCC(F)(F)C(F)(F)F)C(=O)N[C@@H]1C(=O)N(CCO)c2ccccc2-c2ccccc21 [Example 8, (2,2,3,3,3-Pentafluoro-propyl)-carbamic acid (S)-1-[(S)-5-(2-hydroxy-ethyl)-6-oxo-6,7-dihydro-5H-dibenzo[b,d]azepin-7-ylcarbamoyl]-ethyl ester] | 6 nM |
| O=C(CC(=O)N[C@@H]1C(=O)N(CCO)c2ccccc2-c2ccccc21)NCC(F)(F)C(F)(F)F [Example 9, N—[(S)-5-(2-Hydroxy-ethyl)-6-oxo-6,7-dihydro-5H-dibenzo[b,d]azepin-7-yl]-N′-(2,2,3,3,3-pentafluoro-propyl)-malonamide] | 19 nM |
| COC(C(=O)NCC(F)(F)C(F)(F)F)C(=O)N[C@@H]1C(=O)N(CCOCc2ccccc2)c2ccccc2-c2ccccc21 (stereo partly drawn) [Example 10, N—[(S)-5-(2-Benzyloxy-ethyl)-6-oxo-6,7-dihydro-5H-dibenzo[b,d]azepin-7-yl]-2-methoxy-N′-(2,2,3,3,3-pentafluoro-propyl)-malonamide] | 49 nM |
| COC(C(=O)NCC(F)(F)C(F)(F)F)C(=O)N[C@@H]1C(=O)N(CCO)c2ccccc2-c2ccccc21 (stereo partly drawn) [Example 11, N—[(S)-5-(2-Hydroxy-ethyl)-6-oxo-6,7-dihydro-5H-dibenzo[b,d]azepin-7-yl]-2-methoxy-N′-(2,2,3,3,3-pentafluoro-propyl)-malonamide] | 7 nM |
| CC(O)(C(=O)NCC(F)(F)C(F)(F)F)C(=O)N[C@@H]1C(=O)N(CCOCc2ccccc2)c2ccccc2-c2ccccc21 (stereo partly drawn) [Example 12, N—[(S)-5-(2-Benzyloxy-ethyl)-6-oxo-6,7-dihydro-5H-dibenzo[b,d]azepin-7-yl]-2-hydroxy-2-methyl-N′-(2,2,3,3,3-pentafluoro-propyl)-malonamide] | 10 nM |
| CC(F)(C(=O)NCC(F)(F)C(F)(F)F)C(=O)N[C@@H]1C(=O)N(CCOCc2ccccc2)c2ccccc2-c2ccccc21 (stereo partly drawn) [Example 13, N—[(S)-5-(2-Benzyloxy-ethyl)-6-oxo-6,7-dihydro-5H-dibenzo[b,d]azepin-7-yl]-2-fluoro-2-methyl-N′-(2,2,3,3,3-pentafluoro-propyl)-malonamide] | 10 nM |
| CCOC(C(=O)NCC(F)(F)C(F)(F)F)C(=O)N[C@@H]1C(=O)N(CCOCc2ccccc2)c2ccccc2-c2ccccc21 (stereo partly shown) [Example 14] | 8 nM |
| CC(O)(C(=O)NCC(F)(F)C(F)(F)F)C(=O)N[C@@H]1C(=O)N(CCO)c2ccccc2-c2ccccc21 (stereo partly drawn) [Example 15, 2-Hydroxy-N—[(S)-5-(2-hydroxy-ethyl)-6-oxo-6,7-dihydro-5H-dibenzo[b,d]azepin-7-yl]-2-methyl-N′-(2,2,3,3,3-pentafluoro-propyl)-malonamide] | 1 nM |
| CC(F)(C(=O)NCC(F)(F)C(F)(F)F)C(=O)N[C@@H]1C(=O)N(CCO)c2ccccc2-c2ccccc21 (stereo partly drawn) [Example 16, 2-Fluoro-N—[(S)-5-(2-hydroxy-ethyl)-6-oxo-6,7-dihydro-5H-dibenzo[b,d]azepin-7-yl]-2-methyl-N′-(2,2,3,3,3-pentafluoro-propyl)-malonamide] | 3 nM |
